The source of these data is patent US11524968B2, “Heterocyclic compound as a protein kinase inhibitor” (HK inno.N Corporation, priority 2017, dated 2022).

In this test the target is JAK1 (Homo sapiens (Human), UniProt P23458). The experiment in a line: Analysis of JAK1 activity inhibition ability (ADP-Glo Kinase Assay). As to conditions: JAK1 enzyme, ADP-Glo luminescence, ATP 250 uM, IRS-itide substrate, 30° C. 40 minutes; read-out: IC50. The format is biochemical. A digest of the protocol: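 ADP-Glo luminescence read-out of ADP production, with IC50 taken as the concentration halving JAK1 activity relative to control. Enzyme was incubated 40 min at 30 °C with compound, IRS-itide (40 ng/mL) and ATP (250 uM), concentrations as prepared in pH 7.5 Tris-HCl/MgCl2/BSA/DTT buffer.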
Chain of JAK1 (P23458 whole entry): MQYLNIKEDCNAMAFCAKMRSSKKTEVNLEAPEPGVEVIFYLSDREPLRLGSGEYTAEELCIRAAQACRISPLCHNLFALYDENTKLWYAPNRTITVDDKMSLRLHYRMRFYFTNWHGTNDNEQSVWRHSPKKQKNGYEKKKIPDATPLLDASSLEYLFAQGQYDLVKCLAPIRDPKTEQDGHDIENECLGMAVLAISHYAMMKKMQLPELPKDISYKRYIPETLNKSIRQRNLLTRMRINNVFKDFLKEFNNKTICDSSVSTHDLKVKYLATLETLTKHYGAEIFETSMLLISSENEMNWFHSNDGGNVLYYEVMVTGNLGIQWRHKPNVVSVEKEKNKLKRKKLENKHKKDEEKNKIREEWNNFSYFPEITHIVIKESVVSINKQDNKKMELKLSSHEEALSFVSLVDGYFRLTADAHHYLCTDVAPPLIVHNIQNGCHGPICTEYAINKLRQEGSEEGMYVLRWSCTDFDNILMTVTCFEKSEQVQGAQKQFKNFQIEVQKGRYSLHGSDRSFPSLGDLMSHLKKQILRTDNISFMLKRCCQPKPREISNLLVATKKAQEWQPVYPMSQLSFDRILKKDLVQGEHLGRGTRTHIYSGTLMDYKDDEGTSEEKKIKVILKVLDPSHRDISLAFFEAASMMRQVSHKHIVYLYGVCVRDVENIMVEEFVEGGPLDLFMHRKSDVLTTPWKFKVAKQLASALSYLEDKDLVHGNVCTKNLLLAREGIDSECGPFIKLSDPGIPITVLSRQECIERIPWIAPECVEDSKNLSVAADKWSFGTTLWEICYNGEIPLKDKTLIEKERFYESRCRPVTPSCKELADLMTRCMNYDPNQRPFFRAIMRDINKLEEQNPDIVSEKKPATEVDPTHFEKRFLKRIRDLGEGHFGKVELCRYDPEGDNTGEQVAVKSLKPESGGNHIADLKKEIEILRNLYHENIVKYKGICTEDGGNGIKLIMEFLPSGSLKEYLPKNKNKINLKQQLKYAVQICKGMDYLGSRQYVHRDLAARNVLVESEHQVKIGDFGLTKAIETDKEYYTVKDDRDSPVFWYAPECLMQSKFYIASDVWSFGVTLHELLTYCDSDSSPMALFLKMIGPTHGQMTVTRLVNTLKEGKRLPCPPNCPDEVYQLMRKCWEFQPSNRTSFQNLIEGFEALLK
For orientation: In ADP-Glo the light output rises with the ADP produced.
As a reminder, the IC50 is the concentration needed to halve the response being measured. Turning to `CCCS(=O)(=O)N1C2C=C(c3cc(NC(=O)C4CC4)nc4[nH]ccc34)CC1CC2` (stereo not shown) [Example 176, N-(4-(8-(propylsulfonyl)-8-azabicyclo[3.2.1]oct-2-en-3-yl)-1H-pyrrolo[2,3-b]pyridin-6-yl)cyclopropanecarboxamide], the IC50 lay in the range of 20 to 200 nM.

Regarding `CC(C)Oc1ccc(S(=O)(=O)Nc2ccc(-c3cc(NC(=O)C4CC4)nc4[nH]ccc34)cc2)cc1` [Example 19, N-(4-(4-((4-isopropoxyphenyl)sulfonamido)phenyl)-1H-pyrrolo[2,3-b]pyridin-6-yl)cyclopropanecarboxamide], the IC50 was under 20 nM.

In the case of `CCCS(=O)(=O)Nc1c(F)cc(-c2cc(NC(=O)C3CC3)nc3[nH]ccc23)cc1F` [Example 82, N-(4-(3,5-difluoro-4-(propylsulfonamido)phenyl)-1H-pyrrolo[2,3-b]pyridin-6-yl)cyclopropanecarboxamide], the IC50 was in the range of 20 to 200 nM.

Take `O=C(Nc1cc(-c2ccc(NS(=O)(=O)c3ccc(Br)c(F)c3)cc2)c2cc[nH]c2n1)C1CC1` [Example 31, N-(4-(4-((4-bromo-3-fluorophenyl)sulfonamido)phenyl)-1H-pyrrolo[2,3-b]pyridin-6-yl)cyclopropanecarboxamide]: the IC50 is 20 to 200 nM.

Consider `O=C(Nc1cc(-c2ccc(CC(=O)N3CCC(F)(F)C3)cc2)c2cc[nH]c2n1)C1CC1` [Example 569, N-(4-(4-(2-(3,3-difluoropyrrolidin-1-yl)-2-oxoethyl)phenyl)-1H-pyrrolo[2,3-b]pyridin-6-yl)cyclopropanecarboxamide], for which the IC50 is under 20 nM.

`CC1CN(C(=O)c2cccc(Br)n2)CC=C1c1cc(NC(=O)C2CC2)nc2[nH]ccc12` (stereo not shown) [Example 337, N-(4-(1-(6-bromopicolinoyl)-3-methyl-1,2,3,6-tetrahydropyridin-4-yl)-1H-pyrrolo[2,3-b]pyridin-6-yl)cyclopropanecarboxamide]: the IC50 fell in the range of 20 to 200 nM.

On to `COc1ccc(C(=O)N2CC=C(c3cc(NC(=O)C4CC4)nc4[nH]ccc34)C(C)C2)cn1` (stereo not shown) [Example 380, N-(4-(1-(6-methoxynicotinoyl)-3-methyl-1,2,3,6-tetrahydropyridin-4-yl)-1H-pyrrolo[2,3-b]pyridin-6-yl)cyclopropanecarboxamide], for which the IC50 lay within 20 to 200 nM.

With `N#C[C@H]1CCCN1C(=O)CN1C2CCC1CN(c1cc(NC(=O)C3CC3)nc3[nH]ccc13)C2` [Example 703, N-(4-(8-(2-((R)-2-cyanopyrrolidin-1-yl)-2-oxoethyl)-3,8-diazabicyclo[3.2.1]octan-3-yl)-1H-pyrrolo[2,3-b]pyridin-6-yl)cyclopropanecarboxamide], the IC50 was over 200 nM.

Take `CN(CC#N)C(=O)Cc1ccc(-c2cc(NC(=O)C3CC3)nc3[nH]ccc23)cc1` [Example 573, N-(4-(4-(2-((cyanomethyl)(methyl)amino)-2-oxoethyl)phenyl)-1H-pyrrolo[2,3-b]pyridin-6-yl)cyclopropanecarboxamide]: the IC50 lay within 20 to 200 nM.

Consider `C[C@H]1CC(Nc2ccc(-c3cc(NC(=O)C4CC4)nc4[nH]ccc34)cc2)CCN1C(=O)c1ccnc(F)c1` (stereo partly drawn) [Example 503, N-(4-(4-(((2S)-1-(2-fluoroisonicotinoyl)-2-methylpiperidin-4-yl)amino)phenyl)-1H-pyrrolo[2,3-b]pyridin-6-yl)cyclopropanecarboxamide], for which the IC50 is over 200 nM.

For `CCS(=O)(=O)Nc1ccc(-c2cc(NC(=O)C3CC3)[n+]([O-])c3[nH]ccc23)c(C)c1` [Example 134, 6-(cyclopropanecarboxamido)-4-(4-(ethylsulfonamido)-2-methylphenyl)-1H-pyrrolo[2,3-b]pyridine 7-oxide], the IC50 is 20 to 200 nM.

`O=C(Nc1cc(C2=CCC(NS(=O)(=O)CCCF)CC2)c2cc[nH]c2n1)C1CC1` (stereo not shown) [Example 159, N-(4-(4-((3-fluoropropyl)sulfonamido)cyclohex-1-en-1-yl)-1H-pyrrolo[2,3-b]pyridin-6-yl)cyclopropanecarboxamide]: the half-maximal inhibitory concentration (IC50) is under 20 nM.

Turning to `O=C(Nc1cc(C2=CC3CCCC(C2)N3C(=O)c2ccc(Cl)nc2)c2cc[nH]c2n1)C1CC1` (stereo not shown) [Example 368, N-(4-(9-(6-chloronicotinoyl)-9-azabicyclo[3.3.1]non-2-en-3-yl)-1H-pyrrolo[2,3-b]pyridin-6-yl)cyclopropanecarboxamide], the IC50 was under 20 nM.

Consider `O=C(Nc1cc(-c2ccc(NS(=O)(=O)N3CCCCC3)cc2)c2cc[nH]c2n1)C1CC1` [Example 219, N-(4-(4-(piperidine-1-sulfonamido)phenyl)-1H-pyrrolo[2,3-b]pyridin-6-yl)cyclopropanecarboxamide], for which the IC50 is under 20 nM.

In the case of `N#CCNC(=O)c1ccc(-c2cc(NC(=O)C3CC3)nc3[nH]ccc23)cc1` [Example 523, N-(cyanomethyl)-4-(6-(cyclopropanecarboxamido)-1H-pyrrolo[2,3-b]pyridin-4-yl)benzamide], the IC50 is under 20 nM.

As to `O=C(Nc1cc(-c2cnn(C3CCN(S(=O)(=O)C(F)(F)F)CC3)c2)c2cc[nH]c2n1)C1CC1` [Example 609, N-(4-(1-(1-((trifluoromethyl)sulfonyl)piperidin-4-yl)-1H-pyrazol-4-yl)-1H-pyrrolo[2,3-b]pyridin-6-yl)cyclopropanecarboxamide], the IC50 was in the range of 20 to 200 nM.

Take `O=C(Nc1cc(N2CCN(S(=O)(=O)CCCF)CC2)c2cc[nH]c2n1)C1CC1` [Example 663, N-(4-(4-((3-fluoropropyl)sulfonyl)piperazin-1-yl)-1H-pyrrolo[2,3-b]pyridin-6-yl)cyclopropanecarboxamide]: the IC50 is over 200 nM.

Take `N#CCCC(=O)N1CCN(c2cc(NC(=O)C3CC3)nc3[nH]ccc23)CC1` [Example 684, N-(4-(4-(3-cyanopropanoyl)piperazin-1-yl)-1H-pyrrolo[2,3-b]pyridin-6-yl)cyclopropanecarboxamide]: the IC50 was over 200 nM.

Take `CCS(=O)(=O)N1CC(CC#N)(N2CCN(c3cc(NC(=O)C4CC4)nc4[nH]ccc34)CC2)C1` [Example 700, N-(4-(4-(3-(cyanomethyl)-1-(ethylsulfonyl)azetidin-3-yl)piperazin-1-yl)-1H-pyrrolo[2,3-b]pyridin-6-yl)cyclopropanecarboxamide]: the IC50 was over 200 nM.

Consider `N#CC1CCN(C(=O)C(F)(F)c2ccc(-c3cc(NC(=O)C4CC4)nc4[nH]ccc34)cc2)CC1` [Example 575, N-(4-(4-(2-(4-cyanopiperidin-1-yl)-1,1-difluoro-2-oxoethyl)phenyl)-1H-pyrrolo[2,3-b]pyridin-6-yl)cyclopropanecarboxamide], for which the half-maximal inhibitory concentration (IC50) fell in the range of 20 to 200 nM.

Take `Cc1cc(CC(=O)N2CCS(=O)(=O)CC2)ccc1-c1cc(NC(=O)C2CC2)nc2[nH]ccc12` [Example 545, N-(4-(4-(2-(1,1-dioxidothiomorpholino)-2-oxoethyl)-2-methylphenyl)-1H-pyrrolo[2,3-b]pyridin-6-yl)cyclopropanecarboxamide]: the half-inhibitory concentration (IC50) is 20 to 200 nM.

`N#CCC(=O)N1CC(Nc2ccc(-c3cc(NC(=O)C4CC4)nc4[nH]ccc34)cc2)C1` [Example 515, N-(4-(4-((1-(2-cyanoacetyl)azetidin-3-yl)amino)phenyl)-1H-pyrrolo[2,3-b]pyridin-6-yl)cyclopropanecarboxamide]: the IC50 lay within 20 to 200 nM.

Regarding `N#CC1CN(Cc2ccc(-c3cc(NC(=O)C4CC4)nc4[nH]ccc34)cc2)C1` [Example 586, N-(4-(4-((3-cyanoazetidin-1-yl)methyl)phenyl)-1H-pyrrolo[2,3-b]pyridin-6-yl)cyclopropanecarboxamide], the IC50 fell in the range of 20 to 200 nM.

Consider `CN(C)C(=O)Cc1ccc(-c2cc(NC(=O)C3CC3)nc3[nH]ccc23)cc1` [Example 540, N-(4-(4-(2-(dimethylamino)-2-oxoethyl)phenyl)-1H-pyrrolo[2,3-b]pyridin-6-yl)cyclopropanecarboxamide], for which the IC50 was 20 to 200 nM.

Take `CCS(=O)(=O)Nc1ccc(-c2cc(N/C(=N\C)C3CC3)nc3[nH]ccc23)cc1` [Example 714, (Z)—N-(4-(4-(ethylsulfonamido)phenyl)-1H-pyrrolo[2,3-b]pyridin-6-yl)-N′-methylcyclopropanecarboximidamide]: the IC50 was over 200 nM.

Regarding `CC(C)(C)OC(=O)N1CC=C(c2cc(NC(=O)C3CC3)nc3[nH]ccc23)C1` [Example 461, tert-butyl 3-(6-(cyclopropanecarboxamido)-1H-pyrrolo[2,3-b]pyridin-4-yl)-2,5-dihydro-1H-pyrrole-1-carboxylate], the IC50 was over 200 nM.

In the case of `CCCS(=O)(=O)Nc1ccc(-c2cc(NC(=O)C3CC3)nc3[nH]ccc23)cc1F` [Example 66, N-(4-(3-fluoro-4-(propylsulfonamido)phenyl)-1H-pyrrolo[2,3-b]pyridin-6-yl)cyclopropanecarboxamide], the half-maximal inhibitory concentration (IC50) is under 20 nM.

With `Cc1ncsc1C(=O)N1CC=C(c2cc(NC(=O)C3CC3)nc3[nH]ccc23)C(C)C1` (stereo not shown) [Example 308, N-(4-(3-methyl-1-(4-methylthiazole-5-carbonyl)-1,2,3,6-tetrahydropyridin-4-yl)-1H-pyrrolo[2,3-b]pyridin-6-yl)cyclopropanecarboxamide], the IC50 fell in the range of 20 to 200 nM.

As for `CCc1cc(NS(=O)(=O)C2CC2)ccc1-c1cc(NC(=O)C2CC2)nc2[nH]ccc12` [Example 113, N-(4-(4-(cyclopropanesulfonamido)-2-ethylphenyl)-1H-pyrrolo[2,3-b]pyridin-6-yl)cyclopropanecarboxamide], the IC50 was under 20 nM.

Take `O=C(Nc1cc(-c2ccc(CN3CCS(=O)(=O)CC3)cc2)c2cc[nH]c2n1)NC1CC1` [Example 717, 1-cyclopropyl-3-(4-(4-((1,1-dioxidothiomorpholino)methyl)phenyl)-1H-pyrrolo[2,3-b]pyridin-6-yl)urea]: the IC50 fell in the range of 20 to 200 nM.

On to `O=C(Nc1cc(-c2cnn(C3CN(S(=O)(=O)C(F)(F)F)C3)c2)c2cc[nH]c2n1)C1CC1` [Example 599, N-(4-(1-(1-((trifluoromethyl)sulfonyl)azetidin-3-yl)-1H-pyrazol-4-yl)-1H-pyrrolo[2,3-b]pyridin-6-yl)cyclopropanecarboxamide], for which the IC50 was under 20 nM.
